Data taken from patent US7138361B2, “Herbicidal heterocycles” (E. I. du Pont de Nemours and Company, priority 2000, dated 2006).

Legend:
Assay type in all cases: in vivo
[1] = system: morning glory (Ipomoea hederacea); experiment: Test B postemergence
Description: (§1) Seeds selected from barnyardgrass (Echinochloa crus-galli), Surinam grass (Brachiaria decumbens), cocklebur (Xanthium strumarium), corn (Zea mays), crabgrass (Digitaria sanguinalis), giant foxtail (Setaria faberii), lambsquarters (Chenopodium album), morning glory (Ipomoea hederacea), pigweed (Amaranthus retroflexus), rice (Oryza saliva) and velvetleaf (Abutilon theophrasti) were planted and treated preemergence with test chemicals formulated in a non-phytotoxic solvent mixture which included a surfactant.
(§2) At the same time, plants selected from these crop and weed species and also blackgrass (Alopecurus myosuroides), wheat (Triticum aestivum) and wild oat (Avena fatua) were treated with postemergence applications of test chemicals formulated in the same manner. Plants ranged in height from 2 to 18 cm (1- to 4-leaf stage) for postemergence treatments. Plant species in the flooded paddy test consisted of rice (Oryza saliva), smallflower flatsedge (Cyperus difformis), duck salad (Heteranthera limosa) and barnyardgrass (Echinochloa crus-galli) grown to the 2-leaf stage for testing. Treated plants and controls were maintained in a greenhouse for 13 to 15 days, after which time all species were compared to controls and visually evaluated. Plant response ratings, summarized in Table B, are based on a scale of 0 to 100 where 0 is no effect and 100 is complete control. A dash (-) response means no test result.

[2] = system: crabgrass (Digitaria sanguinalis); experiment: Test B postemergence
Description: as §1, §2

[3] = system: giant foxtail (Setaria faberii); experiment: Test B postemergence
Description: as §1, §2

[4] = system: wild oat (Avena fatua); experiment: Test B postemergence
Description: as §1, §2

[5] = system: Surinam grass (Brachiaria decumbens); experiment: Test B postemergence
Description: as §1, §2

[6] = system: wheat (Triticum aestivum); experiment: Test B postemergence
Description: as §1, §2

[7] = system: barnyardgrass (Echinochloa crus-galli); experiment: Test B postemergence
Description: as §1, §2

[8] = system: velvetleaf (Abutilon theophrasti); experiment: Test B postemergence
Description: as §1, §2

[9] = system: cocklebur (Xanthium strumarium); experiment: Test B postemergence
Description: as §1, §2

[10] = system: blackgrass (Alopecurus myosuroides); experiment: Test B postemergence
Description: as §1, §2

[11] = system: corn (Zea mays); experiment: Test B postemergence
Description: as §1, §2

[12] = system: lambsquarters (Chenopodium album); experiment: Test B postemergence
Description: as §1, §2

[13] = system: pigweed (Amaranthus retroflexus); experiment: Test B postemergence
Description: as §1, §2

[14] = system: morning glory (Ipomoea hederacea); experiment: Test B preemergence; settings: preemergence
Outline: (§3)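 Pre: seeded pots sprayed, chemical in non-phytotoxic solvent/surfactant mix. Post: plants 2–18 cm, 1–4 leaf, same formulation. Greenhouse 13–15 d; visual % control vs untreated, 0–100 scale.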

[15] = system: rice (Oryza saliva); experiment: Test B preemergence; settings: preemergence
Outline: as §3

[16] = system: crabgrass (Digitaria sanguinalis); experiment: Test B preemergence; settings: preemergence
Outline: as §3

[17] = system: giant foxtail (Setaria faberii); experiment: Test B preemergence; settings: preemergence
Outline: as §3

[18] = system: Surinam grass (Brachiaria decumbens); experiment: Test B preemergence; settings: preemergence
Outline: as §3

[19] = system: barnyardgrass (Echinochloa crus-galli); experiment: Test B preemergence; settings: preemergence
Outline: as §3

[20] = system: velvetleaf (Abutilon theophrasti); experiment: Test B preemergence; settings: preemergence
Outline: as §3

[21] = system: cocklebur (Xanthium strumarium); experiment: Test B preemergence; settings: preemergence
Outline: as §3

[22] = system: corn (Zea mays); experiment: Test B preemergence; settings: preemergence
Outline: as §3

[23] = system: lambsquarters (Chenopodium album); experiment: Test B preemergence; settings: preemergence
Outline: as §3

[24] = system: pigweed (Amaranthus retroflexus); experiment: Test B preemergence; settings: preemergence
Outline: as §3

[25] = system: rice (Oryza saliva); experiment: Test C flooded paddy test; settings: for Rice plant response rating: Flooded Paddy, scale 0 to 100, 0 no effect, 100 complete control; for Plant response rating, Rice: flooded paddy test, scale 0 to 100 (0 no effect, 100 complete control)
Outline: (§4)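 Visual injury score, 0 (no effect) to 100 (complete control), relative to controls. Paddy plants treated at 2-leaf stage; greenhouse hold 12–14 d before rating.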

[26] = system: smallflower flatsedge (Cyperus difformis); experiment: Test C flooded paddy test; settings: for Flatsedge plant response rating: Flooded Paddy, scale 0 to 100, 0 no effect, 100 complete control; for Plant response rating, Flatsedge: flooded paddy test, scale 0 to 100 (0 no effect, 100 complete control)
Outline: as §4

[27] = system: duck salad (Heteranthera limosa); experiment: Test C flooded paddy test; settings: for Ducksalad plant response rating: Flooded Paddy, scale 0 to 100, 0 no effect, 100 complete control; for Plant response rating, Ducksalad: flooded paddy test, scale 0 to 100 (0 no effect, 100 complete control)
Outline: as §4

[28] = system: barnyardgrass (Echinochloa crus-galli); experiment: Test C flooded paddy test; settings: for Barnyardgrass plant response rating: Flooded Paddy, scale 0 to 100, 0 no effect, 100 complete control; for Plant response rating, Barnyardgrass: flooded paddy test, scale 0 to 100 (0 no effect, 100 complete control)
Outline: as §4

[29] = Rate 62 g/ha, scale 0 to 100, 0 no effect, 100 complete control
[30] = Rate 250 g/ha, scale 0 (no effect) to 100 (complete control), 13 to 15 days
[31] = Rate 62 g/ha, scale of 0 to 100 where 0 is no effect and 100 is complete control, 13 to 15 days
[32] = Rate 250 g/ha, scale 0 to 100, 0 no effect, 100 complete control

SMILES: CCOc1cccc(N2CCC(n3ccc(C(CC)CC)n3)C2=O)c1 (stereo not shown) [Compound 125]
- Plant response rating, Morningglory [1, 29]: 50
- Plant response rating, Morningglory [1, 30]: 100
- Plant response rating, Crabgrass [2, 29]: 0
- Plant response rating, Crabgrass [2, 30]: 0
- Plant response rating, Foxtail, Giant [3, 29]: 0
- Plant response rating, Foxtail, Giant [3, 30]: 0
- Plant response rating, Wild Oat [4, 29]: 0
- Plant response rating, Wild Oat [4, 30]: 0
- Plant response rating, Surinam grass [5, 29]: 0
- Plant response rating, Surinam grass [5, 30]: 0
- Plant response rating, Wheat [6, 29]: 0
- Plant response rating, Wheat [6, 30]: 0
- Plant response rating, Barnyardgrass [7, 29]: 0
- Plant response rating, Barnyardgrass [7, 30]: 80
- Plant response rating, Velvetleaf [8, 29]: 0
- Plant response rating, Velvetleaf [8, 30]: 0
- Plant response rating, Cocklebur [9, 29]: 30
- Plant response rating, Cocklebur [9, 30]: 70
- Plant response rating, Blackgrass [10, 29]: 0
- Plant response rating, Blackgrass [10, 30]: 0
- Plant response rating, Corn [11, 29]: 0
- Plant response rating, Corn [11, 30]: 0
- Plant response rating, Lambsquarters [12, 29]: 100
- Plant response rating, Lambsquarters [12, 30]: 100
- Plant response rating, Pigweed [13, 29]: 30
- Plant response rating, Pigweed [13, 30]: 70
- Plant response rating, Morningglory [14, 31]: 50
- Plant response rating, Morningglory [14, 32]: 80
- Plant response rating, Rice [15, 31]: 50
- Plant response rating, Rice [15, 32]: 100
- Plant response rating, Crabgrass [16, 31]: 100
- Plant response rating, Crabgrass [16, 32]: 100
- Plant response rating, Foxtail, Giant [17, 31]: 100
- Plant response rating, Foxtail, Giant [17, 32]: 100
- Plant response rating, Surinam grass [18, 31]: 70
- Plant response rating, Surinam grass [18, 32]: 100
- Plant response rating, Barnyardgrass [19, 31]: 100
- Plant response rating, Barnyardgrass [19, 32]: 100
- Plant response rating, Velvetleaf [20, 31]: 0
- Plant response rating, Velvetleaf [20, 32]: 40
- Plant response rating, Cocklebur [21, 31]: 0
- Plant response rating, Cocklebur [21, 32]: 50
- Plant response rating, Corn [22, 31]: 20
- Plant response rating, Corn [22, 32]: 40
- Plant response rating, Lambsquarters [23, 31]: 100
- Plant response rating, Lambsquarters [23, 32]: 100
- Plant response rating, Pigweed [24, 31]: 100
- Plant response rating, Pigweed [24, 32]: 100
- Rice plant response rating ([25]; Rate 250 g/ha): 40
- Rice plant response rating ([25]; Rate 500 g/ha): 60
- Plant response rating, Rice ([25]; Rate 62 g/ha): 0
- Plant response rating, Rice ([25]; Rate 125 g/ha): 10
- Flatsedge plant response rating ([26]; Rate 250 g/ha): 100
- Flatsedge plant response rating ([26]; Rate 500 g/ha): 100
- Plant response rating, Flatsedge ([26]; Rate 62 g/ha): 100
- Plant response rating, Flatsedge ([26]; Rate 125 g/ha): 100
- Ducksalad plant response rating ([27]; Rate 250 g/ha): 100
- Ducksalad plant response rating ([27]; Rate 500 g/ha): 100
- Plant response rating, Ducksalad ([27]; Rate 62 g/ha): 40
- Plant response rating, Ducksalad ([27]; Rate 125 g/ha): 95
- Barnyardgrass plant response rating ([28]; Rate 250 g/ha): 100
- Barnyardgrass plant response rating ([28]; Rate 500 g/ha): 100
- Plant response rating, Barnyardgrass ([28]; Rate 62 g/ha): 65
- Plant response rating, Barnyardgrass ([28]; Rate 125 g/ha): 100
